Reference: ChEMBL document CHEMBL1909046, “DrugMatrix in vitro pharmacology data”

What was measured:
[1] = biological target: Mitogen-activated protein kinase 3 (Homo sapiens, UniProt P27361); assay: DRUGMATRIX: Protein Serine/Threonine Kinase, ERK1 enzyme inhibition (substrate: Myelin Basic Protein); parameters: species or system Escherichia coli; details: Not Active = under 50% inhibition at 10 µM
[2] = biological target: Delta-type opioid receptor (Homo sapiens, UniProt P41143); assay type: cell membranes, Membrane; details: hek293; also: in other assays of this panel Not Active means under 50% inhibition at 10 µM
Sequence of Delta-type opioid receptor (P41143 whole entry): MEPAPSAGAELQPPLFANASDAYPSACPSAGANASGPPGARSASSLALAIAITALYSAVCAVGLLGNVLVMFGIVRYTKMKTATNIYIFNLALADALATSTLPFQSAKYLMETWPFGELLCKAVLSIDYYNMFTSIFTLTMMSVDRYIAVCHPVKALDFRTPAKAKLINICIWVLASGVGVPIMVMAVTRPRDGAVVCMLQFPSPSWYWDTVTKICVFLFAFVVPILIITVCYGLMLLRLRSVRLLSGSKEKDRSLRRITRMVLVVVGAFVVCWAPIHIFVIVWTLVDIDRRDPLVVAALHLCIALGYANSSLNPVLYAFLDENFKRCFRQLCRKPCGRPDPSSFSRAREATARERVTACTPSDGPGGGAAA

[3] = DRUGMATRIX: Calcium Channel Type L, Dihydropyridine radioligand binding (ligand: [3H] Nitrendipine); assay type: cell membranes, Rattus norvegicus, Wistar, Cerebral cortex, Membrane; details: Not Active = under 50% inhibition at 10 µM
[4] = biological target: cGMP-specific 3',5'-cyclic phosphodiesterase (Homo sapiens, UniProt O76074); assay: DRUGMATRIX: Phosphodiesterase PDE5 enzyme inhibition (substrate: [3H]cGMP + cGMP); assay type: tissue-based, Platelet; details: platelet; Not Active = under 50% inhibition at 10 µM
[5] = DRUGMATRIX: Imidazoline I2, Central radioligand binding (ligand: [3H] Idazoxan); assay type: cell membranes, Rattus norvegicus, Wistar, Cerebral cortex, Membrane; details: Not Active = under 50% inhibition at 10 µM
Carbonic anhydrase 2 = Carbonic anhydrase 2 (Homo sapiens, UniProt P00918); assay: DRUGMATRIX: Carbonic Anhydrase II enzyme inhibition (substrate: 4-Nitrophenyl acetate (4-NPA)); assay type: tissue-based; details: erythrocyte; Not Active = under 50% inhibition at 10 µM
Histamine H2 receptor = Histamine H2 receptor (Homo sapiens, UniProt P25021); assay type: cell membranes, CHO-K1, Membrane; details: cho-k1; also: in other assays of this panel Not Active means under 50% inhibition at 10 µM
Sequence of Histamine H2 receptor (P25021 whole entry): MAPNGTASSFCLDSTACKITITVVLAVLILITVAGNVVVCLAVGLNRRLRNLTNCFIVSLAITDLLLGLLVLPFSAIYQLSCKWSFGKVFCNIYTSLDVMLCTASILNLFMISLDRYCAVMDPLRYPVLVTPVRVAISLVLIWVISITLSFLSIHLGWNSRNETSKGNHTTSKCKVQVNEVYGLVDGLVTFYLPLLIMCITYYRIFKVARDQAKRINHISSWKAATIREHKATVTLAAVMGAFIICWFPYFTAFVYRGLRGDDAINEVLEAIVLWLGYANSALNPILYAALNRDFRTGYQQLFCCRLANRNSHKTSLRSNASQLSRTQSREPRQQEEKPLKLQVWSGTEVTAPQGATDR

Sequence of Mitogen-activated protein kinase 3 (P27361 whole entry): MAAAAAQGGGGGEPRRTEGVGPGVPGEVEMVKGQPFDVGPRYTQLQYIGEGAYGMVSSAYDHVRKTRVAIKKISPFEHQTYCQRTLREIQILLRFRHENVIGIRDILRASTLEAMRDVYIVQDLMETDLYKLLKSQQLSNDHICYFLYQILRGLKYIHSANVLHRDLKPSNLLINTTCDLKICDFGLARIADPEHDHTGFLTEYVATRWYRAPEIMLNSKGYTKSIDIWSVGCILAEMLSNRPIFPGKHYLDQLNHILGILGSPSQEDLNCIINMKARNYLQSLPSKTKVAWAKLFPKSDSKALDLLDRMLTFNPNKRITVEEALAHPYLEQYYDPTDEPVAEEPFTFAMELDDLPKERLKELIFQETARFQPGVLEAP

CC(=O)Oc1ccc(C(c2ccc(OC(C)=O)cc2)c2ccccn2)cc1 [BISACODYL]
Not Active: IC50 [1] | IC50 [2] | IC50 [3] | Ki [3] | IC50 [4] | IC50 [5] | Ki [5] | IC50 (Carbonic anhydrase 2) | IC50 (Histamine H2 receptor)

C[C@@H]1O[C@@H](O[C@@H]2C=C3CC[C@@H]4[C@H](CC[C@]5(C)[C@@H](c6ccc(=O)oc6)CC[C@]45O)[C@@]3(C)CC2)[C@H](O)[C@H](O)[C@H]1O [PROSCILLARIDIN]
Not Active: IC50 [1] | IC50 [2] | IC50 [3] | Ki [3] | IC50 [4] | IC50 [5] | Ki [5] | IC50 (Carbonic anhydrase 2) | IC50 (Histamine H2 receptor)

C[C@@H]1C[C@H]2[C@@H]3CCC4=CC(=O)C=C[C@]4(C)[C@@]3(F)[C@@H](O)C[C@]2(C)[C@@]1(O)C(=O)CO [DEXAMETHASONE]
Not Active: IC50 [1] | IC50 [2] | IC50 [3] | Ki [3] | IC50 [4] | IC50 [5] | Ki [5] | IC50 (Carbonic anhydrase 2) | IC50 (Histamine H2 receptor)

C[n+]1ccc(-c2cc[n+](C)cc2)cc1.[Cl-].[Cl-] [PARAQUAT DICHLORIDE]
Not Active: IC50 [1] | IC50 [2] | IC50 [3] | Ki [3] | IC50 [4] | IC50 [5] | Ki [5] | IC50 (Carbonic anhydrase 2) | IC50 (Histamine H2 receptor)

Cc1cc2c(OCC(CNC(C)(C)C)OC(=O)c3ccccc3)cccc2[nH]1 (centres undefined) [BOPINDOLOL]
Not Active: IC50 [1] | IC50 [2] | IC50 [3] | Ki [3] | IC50 [4] | IC50 [5] | Ki [5] | IC50 (Carbonic anhydrase 2) | IC50 (Histamine H2 receptor)

Nc1ccn([C@@H]2O[C@H](CO)[C@@H](O)C2(F)F)c(=O)n1 [GEMCITABINE]
Not Active: IC50 [1] | IC50 [2] | IC50 [3] | Ki [3] | IC50 [4] | IC50 [5] | Ki [5] | IC50 (Carbonic anhydrase 2) | IC50 (Histamine H2 receptor)

Nc1ccn([C@@H]2O[C@H](CO)[C@@H](O)[C@@H]2O)c(=O)n1 [CYTARABINE]
Not Active: IC50 [1] | IC50 [2] | IC50 [3] | Ki [3] | IC50 [4] | IC50 [5] | Ki [5] | IC50 (Carbonic anhydrase 2) | IC50 (Histamine H2 receptor)

GADOPENTETATE DIMEGLUMINE
Not Active: IC50 [1] | Ki [1] | IC50 [2] | Ki [2] | IC50 [3] | Ki [3] | IC50 [4] | Ki [4] | IC50 [5] | Ki [5] | IC50 (Carbonic anhydrase 2) | Ki (Carbonic anhydrase 2) | IC50 (Histamine H2 receptor) | Ki (Histamine H2 receptor)

C=CCc1ccc(O)c(OC)c1 [EUGENOL]
Not Active: IC50 [1] | IC50 [2] | IC50 [3] | Ki [3] | IC50 [4] | IC50 [5] | Ki [5] | IC50 (Carbonic anhydrase 2) | IC50 (Histamine H2 receptor)

CCn1cc(C(=O)O)c(=O)c2cnc(N3CCCC3)nc21 [PIROMIDIC ACID]
Not Active: IC50 [1] | IC50 [2] | IC50 [3] | Ki [3] | IC50 [4] | IC50 [5] | Ki [5] | IC50 (Carbonic anhydrase 2) | IC50 (Histamine H2 receptor)

CC(C)c1cccc(C(C)C)c1O [PROPOFOL]
Not Active: IC50 [1] | IC50 [2] | IC50 [3] | Ki [3] | IC50 [4] | IC50 [5] | Ki [5] | IC50 (Carbonic anhydrase 2) | IC50 (Histamine H2 receptor)

COC(=O)Nc1nc2ccc(C(=O)c3cccs3)cc2[nH]1 [NOCODAZOLE]
Not Active: IC50 [1] | IC50 [2] | IC50 [3] | Ki [3] | IC50 [4] | IC50 [5] | Ki [5] | IC50 (Carbonic anhydrase 2) | IC50 (Histamine H2 receptor)

AURANOFIN
Not Active: IC50 [1] | Ki [1] | IC50 [2] | Ki [2] | IC50 [3] | Ki [3] | IC50 [4] | Ki [4] | IC50 [5] | Ki [5] | IC50 (Carbonic anhydrase 2) | Ki (Carbonic anhydrase 2) | IC50 (Histamine H2 receptor) | Ki (Histamine H2 receptor)

Cc1nnc2n1-c1ccc(Cl)cc1C(c1ccccc1)=NC2 [ALPRAZOLAM]
Not Active: IC50 [1] | IC50 [2] | IC50 [3] | Ki [3] | IC50 [4] | IC50 [5] | Ki [5] | IC50 (Carbonic anhydrase 2) | IC50 (Histamine H2 receptor)

CC(=O)[C@H]1[C@H](C#N)C[C@H]2[C@@H]3CC=C4C[C@@H](O)CC[C@]4(C)[C@H]3CC[C@@]21C [PREGNENOLONE CARBONITRILE]
Not Active: IC50 [1] | IC50 [2] | IC50 [3] | Ki [3] | IC50 [4] | IC50 [5] | Ki [5] | IC50 (Carbonic anhydrase 2) | IC50 (Histamine H2 receptor)

C[C@@H]1CC[C@@]2(OC1)O[C@H]1[C@@H](O)[C@H]3[C@@H]4CC[C@H]5C[C@@H](O[C@@H]6O[C@H](CO)[C@H](O[C@@H]7O[C@H](CO)C(O)[C@H](O[C@@H]8OC[C@@H](O)[C@H](O)[C@H]8O)[C@H]7O[C@@H]7O[C@H](CO)[C@H](O)[C@H](O[C@@H]8O[C@H](CO)[C@@H](O)[C@H](O)[C@H]8O)[C@H]7O)[C@H](O)[C@H]6O)[C@H](O)C[C@]5(C)[C@H]4CC[C@]3(C)[C@H]1[C@@H]2C (some centres undefined) [DIGITONIN]
Not Active: IC50 [1] | IC50 [2] | IC50 [3] | Ki [3] | IC50 [4] | IC50 [5] | Ki [5] | IC50 (Carbonic anhydrase 2) | IC50 (Histamine H2 receptor)
